In patent publication US6956044B1, “Compositions and methods for treatment of epilepsy” (priority 2000, dated 2005):

What was measured:
[1] = system: maximal electroshock seizures; test: Maximal electroshock seizure test; format: in vivo; settings: albino mice, intraperitoneal, 140 minutes after injection of test compound
Source text: Effect Against Maximal Electroshock Seizures. […] Given intraperitoneally to albino mice these compounds have afforded complete protection from maximal electroshock seizures for several hours. To test the maximal seizure anticonvulsant properties in albino mice weighing approximately 25 grams, first an electrical current was delivered via cranial electrodes at a voltage strength which induced a typical maximal electroconvulsant seizure in all the mice. Maximal tonic electrochock seizures were induced with 2 to 7 milliamperes being discharged at 18 volts, and at a frequency of 1000 per second. Abolition of the hindlimb tonic extension component of the seizure was defined as protection in this maximal electroshock test (L. S. Goodman et al., Jour. Pharm. Exper. Therap., 108: 168, 1953). The apparatus used was structured so that the current administered was independent of external resistance. There were 10 animals per group, and they were exposed to electroshock seizures at 20, 80 and 140 minutes after injection of the test compounds. The mice received graded doses of the compounds, and the dose protecting 50% of the animals was calculated biometrically.

[2] = Intraperitoneal LD50 (Table 2); format: in vivo
[3] = system: pentylenetetrazol-induced seizures; test: Pentylenetetrazol (Metrazol) seizure test; format: in vivo; settings: pentylenetetrazol 120 mg/kg i.p. 30 minutes after compound
Description: Effect Against Pentylenetetrazol (Metrazol) Seizures. […] The pentylenetetrazol (metrazol), 120 mg/kg, was injected intraperitoneally 30 minutes after the oral administration of the respective graded doses of the compounds. Protection in this test was defined as a failure to detect even a single episode of clonic spasms of at least 5 seconds duration during a 30 minute period following the injection of the metrazol (F. M. Berger, 78:277, 1951). […] Exper. Med. Biol., against pentylenetetrazol seizures ([…] al., Epilepsia, 19: 193-408, 1978).

Oral LD50 (Table 3) = format: in vivo
[4] = system: Bullfrog sciatic nerve trunk (de-sheathed); test: Frog sciatic nerve trunk high frequency stimulation; settings: 10 mM
Source text: Pirfenidone: Effect on Frog Sciatic Nerve Trunk High Frequency Stimulation. Bullfrog sciatic nerve trunk (de-sheathed) was stimulated with trains of pulses at 200 Hertz in order to see if pirfenidone affected the nerve's ability to conduct high frequency impulses. […] Drugs that cause “use-dependent” block (high frequency failure) are generally regarded as potential anti-epileptic drugs.

[5] = system: cat soleus muscle nerve preparation; test: Cat soleus muscle nerve preparation, neuromuscular function; format: in vivo; settings: for Single impulse transmission: cat soleus muscle nerve preparation
Source text: Pirfenidone: Effect on Neuromuscular Function of the Cat Soleus Muscle Nerve Preparation. […] The action resembles that of phenytoin (J. A. Wada, Arch. Neurol., 34: 389–395, 1977).

[6] = Plasma concentration after oral dosing in man; format: in vivo
Description: In laboratory animals or in man, pirfenidone is well absorbed after oral administration. Plasma pirfenidone concentrations in man peak 1 to 4 hours after dosing. Metabolically, first order kinetics prevail over a daily dose range of 1200 to 3600 milligrams of pirfenidone in divided dosage (t.i.d.). Pirfenidone is cleared primarily by hepatic metabolism (S. Giri et al., Amer. Thoracic Soc. International Conf., Apr. 24-29, 1998) mainly hydroxylation and conjugation, and excreted primarily in the urine. […] The highly rapid and efficient oral bioavailability of pirfenidone in humans contrasts with that of oral phenytoin. In man, absorption of phenytoin after oral ingestion is slow, often variable and can be incomplete so that peak or effective concentrations in plasma and tissues may be delayed for 3 or more hours (E. Perucca and […], “Handbook of Exper. Pharmacol.,” Vol. 74: 831-855, 1985, Springer-Verlag, Berlin.)

nerve after-discharge = test: After-discharge on electrical nerve stimulation (neuropharmacological tests in cat and frog); settings: cat and frog demonstrations
Source text: However, the molecular mechanism of the anticonvulsant action within neuronal cells remains unknown.

[7] = system: pentylenetetrazol-induced seizures; settings: literature (Krall et al.); cited from earlier work
[8] = man; cited from earlier work

SMILES | I.P. ED50 (dose protecting 50% of mice against maximal electroshock seizures) [1] | I.P. LD50 [2] [mg/kg] | ORAL ED50 (dose protecting 50% of mice against pentylenetetrazol-induced seizures) [3] | ORAL LD50 (Oral LD50 (Table 3)) [mg/kg] | Conduction of high frequency impulses (200 Hertz pulse trains) [4] | Local anesthesia in the nerve [4] | Post-tetanic potentiation (PTP) ([5]; 50 mg/kg intravenously) | Single impulse transmission [5] | Time of peak plasma concentration after dosing [6] [h] | Block of the classical after-discharge when a nerve is electronically stimulated (nerve after-discharge) | Activity against pentylenetetrazol seizures [7] | Delay of peak or effective concentrations in plasma and tissues after oral ingestion [8] [h]
O=c1ccccn1-c1ccccc1 [1-phenyl-2-(1H)-pyridone, reference compound] | No Activity | >500 | No Activity | 540 ± 124 | – | – | – | – | – | – | – | –
Cc1cccn(-c2ccccc2)c1=O [3-methyl-1-phenyl-2-(1H)-pyridone] | No Activity | >500 | No Activity | 650 ± 110 | – | – | – | – | – | – | – | –
CCc1ccc(=O)n(-c2ccccc2)c1 [5-ethyl-1-phenyl-2-(1H)-pyridone] | 60 ± 10 mg/kg | 500 ± 61 | 285 ± 29 mg/kg | 425 ± 48 | – | – | – | – | – | – | – | –
Cc1ccc(=O)n(-c2ccccc2)c1 [5-methyl-1-phenyl-2-(1H)-pyridone] | 85 ± 11 mg/kg | 600 ± 43 | 325 ± 41 mg/kg | 610 ± 34 | caused definite high frequency failure | did not cause local anesthesia | suppresses the post-tetanic potentiation | Neither pirfenidone nor phenytoin impair | 1 to 4 | completely block | – | –
O=C1NC(=O)C(c2ccccc2)(c2ccccc2)N1 [phenytoin (Dilantin), phenytoin, reference compound] | 50 ± 15 mg/kg | 200 ± 45 | No Activity | 490 ± 35 | – | – | – | Neither pirfenidone nor phenytoin impair | – | completely block | inactive | ≥ 3
